Reference: patent publication US10231956B2, “3-(1H-pyrrolo[3,2-C]pyridin-2-YL)-1 H-pyrazolo[4,3-B]pyridines and therapeutic uses thereof” (Samumed, LLC, priority 2015, dated 2019)

What was measured:
Assay type in all cases: cell-based
[1] = test system: primary human fibroblasts derived from IPF patients (LL29 cells); assay: Inhibition of fibrotic process: αSMA staining in TGF-β1 treated LL29 fibroblasts; conditions: Fibroblast; for EC50: 96 h, TGF-β1 20 ng/mL, 4 days, % cells positive for αSMA; for inhibition at 10 µM: given for EC50 >10 μM, TGF-β1, αSMA, read-out: percent inhibition at 10 μM
How it was run: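 LL29 cells at 1,500/well in F12 with 1% FBS, compounds at 1 μM–1.87 nM (11-point, 0.1% DMSO), TGF-β1 20 ng/mL added 1 h later, 4 days at 37 °C. SYTOX-positive cells excluded; % αSMA-positive cells by immunofluorescence imaging, normalized to TGF-β1/DMSO wells, triplicates fitted for EC50; above 10 μM, % inhibition at 10 μM given.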

SW480 colon cancer cells = assay: Cell viability assay (CellTiter-Blue) in SW480 colon cancer cells; conditions: Homo sapiens; for EC50: 96 h, four days, CellTiter-Blue; for inhibition at 10 µM: given for EC50 >10 μM, read-out: percent inhibition at 10 μM
How it was run: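 Four-day viability readout in SW480 cells: compound at 0.0045–10 μM (1:3 series), DMSO controls in eight replicates, CellTiter-Blue fluorescence after ~3 h. Values are regression-derived EC50s, or percent inhibition at 10 μM when EC50 exceeds 10 μM.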

IL-6 = IL-6 inhibition in LPS-stimulated THP-1 cells (HTRF); conditions: Homo sapiens; for EC50: LPS 500 ng/mL, 22 hours, IL6 HTRF; for inhibition at 10 µM: given for EC50 >10 μM, LPS, IL6, 10 μM, read-out: percent inhibition at 10 μM

Row | SMILES | EC50 (SW480 colon cancer cells) | EC50 (IL-6) | EC50 [1] | inhibition at 10 µM (IL-6) | inhibition at 10 µM (SW480 colon cancer cells) | inhibition at 10 µM [1]
1 | O=C(Nc1cncc(-c2ccc3[nH]nc(-c4cc5c(-c6ccccc6F)nccc5[nH]4)c3n2)c1)C1CC1 [Compound 76, N-(5-(3-(4-(2-Fluorophenyl)-1H-pyrrolo[3,2-c]pyridin-2-yl)-1H-pyrazolo [4,3-b]pyridin-5-yl)pyridin-3-yl)cyclopropanecarboxamide] | 596 nM | 95 nM | 3520 nM |  |  | 
2 | O=C(CC1CCNCC1)Nc1cncc(-c2ccc3[nH]nc(-c4cc5c(N6CCCCC6)nccc5[nH]4)c3n2)c1 [Compound 609, N-(5-(3-(4-(Piperidin-1-yl)-1H-pyrrolo[3,2-c]pyridin-2-yl)-1H-pyrazolo[4,3-b]pyridin-5-yl)pyridin-3-yl)-2-(piperidin-4-yl)acetamide] | > 10000 nM | 2950 nM | 1080 nM |  | 9.7% | 
3 | FC1(F)CCN(Cc2cncc(-c3ccc4[nH]nc(-c5cc6c(N7CCCCC7)nccc6[nH]5)c4n3)c2)C1 [Compound 194, 5-(5-((3,3-Difluoropyrrolidin-1-yl)methyl)pyridin-3-yl)-3-(4-(piperidin-1-yl)-1H-pyrrolo[3,2-c]pyridin-2-yl)-1H-pyrazolo[4,3-b]pyridine] | 1900 nM | 186 nM | 1030 nM |  |  | 
4 | CN(C)Cc1cncc(-c2ccc3[nH]nc(-c4cc5cnccc5[nH]4)c3n2)c1 [Compound 265, 1-(5-(3-(1H-Pyrrolo[3,2-c]pyridin-2-yl)-1H-pyrazolo[4,3-b]pyridin-5-yl)pyridin-3-yl)-N,N-dimethylmethanamine] | 907 nM | 866 nM | 3120 nM |  |  | 
5 | FC1(F)CCN(Cc2cncc(-c3ccc4[nH]nc(-c5cc6cnccc6[nH]5)c4n3)c2)C1 [Compound 278, 5-(5-((3,3-Difluoropyrrolidin-1-yl)methyl)pyridin-3-yl)-3-(1H-pyrrolo[3,2-c]pyridin-2-yl)-1H-pyrazolo[4,3-b]pyridine] | 88 nM | 92 nM | 68 nM |  |  | 
6 | CS(=O)(=O)NCc1cc(F)cc(-c2nccc3[nH]c(-c4n[nH]c5ccc(-c6cncc(CN7CCC(F)(F)C7)c6)nc45)cc23)c1 [Compound 502, N-(3-(2-(5-(5-((3,3-Difluoropyrrolidin-1-yl)methyl)pyridin-3-yl)-1H-pyrazolo[4,3-b]pyridin-3-yl)-1H-pyrrolo[3,2-c]pyridin-4-yl)-5-fluorobenzyl) methanesulfonamide] | 810 nM | 349 nM | 218 nM |  |  | 
7 | O=C(Nc1cncc(-c2ccc3[nH]nc(-c4cc5c(-c6cccc(F)c6)nccc5[nH]4)c3n2)c1)C1CCCCC1 [Compound 23, N-(5-(3-(4-(3-Fluorophenyl)-1H-pyrrolo[3,2-c]pyridin-2-yl)-1H-pyrazolo [4,3-b]pyridin-5-yl)pyridin-3-yl)cyclohexanecarboxamide] | 505 nM | > 10000 nM | 463 nM | 10.6% |  | 
8 | CN1CCN(c2nccc3[nH]c(-c4n[nH]c5ccc(-c6cncc(CN7CCCCC7)c6)nc45)cc23)CC1 [Compound 239, 3-(4-(4-methylpiperazin-1-yl)-1H-pyrrolo[3,2-c]pyridin-2-yl)-5-(5-(piperidin-1-ylmethyl)pyridin-3-yl)-1H-pyrazolo[4,3-b]pyridine] | 1850 nM | 3980 nM | 1500 nM |  |  | 
9 | c1cc2[nH]c(-c3n[nH]c4ccc(-c5cncc(OCCN6CCCC6)c5)nc34)cc2cn1 [Compound 658, 5-(5-(2-(Pyrrolidin-1-yl)ethoxy)pyridin-3-yl)-3-(1H-pyrrolo[3,2-c]pyridin-2-yl)-1H-pyrazolo[4,3-b]pyridine] | 2070 nM | 1070 nM | 4750 nM |  |  | 
10 | CN1CCN(c2nccc3[nH]c(-c4n[nH]c5ccc(-c6cncnc6)nc45)cc23)CC1 [Compound 251, 3-(4-(4-Methylpiperazin-1l-yl)-1H-pyrrolo[3,2-c]pyridin-2-yl)-5-(pyrimidin-5-yl)-1H-pyrazolo[4,3-b]pyridine] | 1130 nM | 287 nM | 1400 nM |  |  | 
11 | CS(=O)(=O)NCc1cc(F)cc(-c2nccc3[nH]c(-c4n[nH]c5ccc(-c6cncc(NC(=O)C7CCCC7)c6)nc45)cc23)c1 [Compound 498, N-(5-(3-(4-(3-Fluoro-5-(methylsulfonamidomethyl)phenyl)-1H-pyrrolo[3,2-c]pyridin-2-yl)-1H-pyrazolo[4,3-b]pyridin-5-yl)pyridin-3-yl)cyclopentanecarboxamide] | 1980 nM | 162 nM | > 10000 nM |  |  | 34.8%
12 | CS(=O)(=O)NCc1cc(F)cc(-c2nccc3[nH]c(-c4n[nH]c5ccc(-c6cncnc6)nc45)cc23)c1 [Compound 503, N-(3-Fluoro-5-(2-(5-(pyrimidin-5-yl)-1H-pyrazolo[4,3-b]pyridin-3-yl)-1H-pyrrolo [3,2-c]pyridin-4-yl)benzyl)methanesulfonamide] | > 10000 nM | > 10000 nM | > 10000 nM | 7.6% | 15.3% | 0%
13 | CS(=O)(=O)NCc1cc(F)cc(-c2nccc3[nH]c(-c4n[nH]c5ccc(-c6cncc(NC(=O)Cc7ccccc7)c6)nc45)cc23)c1 [Compound 486, N-(5-(3-(4-(3-Fluoro-5-(methylsulfonamidomethyl)phenyl)-1H-pyrrolo[3,2-c]pyridin-2-yl)-1H-pyrazolo[4,3-b]pyridin-5-yl)pyridin-3-yl)-2-phenylacetamide] | > 10000 nM | > 10000 nM | > 10000 nM | 28.5% | 8.8% | 37.1%

More lines, main results first:

Row | EC50 (SW480 colon cancer cells) | EC50 (IL-6) | SMILES | EC50 [1] | inhibition at 10 µM (IL-6) | inhibition at 10 µM (SW480 colon cancer cells) | inhibition at 10 µM [1]
14 | 177 nM | > 10000 nM | O=C(Nc1cncc(-c2ccc3[nH]nc(-c4cc5c(-c6ccc(F)cc6)nccc5[nH]4)c3n2)c1)c1ccccc1 [Compound 39, N-(5-(3-(4-(4-Fluorophenyl)-1H-pyrrolo[3,2-c]pyridin-2-yl)-1H-pyrazolo [4,3-b]pyridin-5-yl)pyridin-3-yl)benzamide] | 302 nM | 3.3% |  | 
15 | > 10000 nM | > 10000 nM | Cc1ncc(-c2ccc3[nH]nc(-c4cc5c(-c6ccncc6)nccc5[nH]4)c3n2)n1C [Compound 573, 5-(1,2-Dimethyl-1H-imidazol-5-yl)-3-(4-(pyridin-4-yl)-1H-pyrrolo[3,2-c]pyridin-2-yl)-1H-pyrazolo[4,3-b]pyridine] | 73 nM | 0% | 25.6% | 
16 | 596 nM | 1150 nM | CN(C)Cc1cncc(-c2ccc3[nH]nc(-c4cc5c(-c6ccccc6F)nccc5[nH]4)c3n2)c1 [Compound 69, 1-(5-(3-(4-(2-Fluorophenyl)-1H-pyrrolo[3,2-c]pyridin-2-yl)-1H-pyrazolo [4,3-b]pyridin-5-yl)pyridin-3-yl)-N,N-dimethylmethanamine] | 626 nM |  |  | 
17 | > 10000 nM | > 10000 nM | CS(=O)(=O)NCc1cc(F)cc(-c2nccc3[nH]c(-c4n[nH]c5ccc(-c6ccccn6)nc45)cc23)c1 [Compound 504, N-(3-Fluoro-5-(2-(5-(pyridin-2-yl)-1H-pyrazolo[4,3-b]pyridin-3-yl)-1H-pyrrolo[3,2-c]pyridin-4-yl)benzyl)methanesulfonamide] | 1940 nM | 0% | 44.7% | 
18 | 4470 nM | > 10000 nM | Cc1ccncc1-c1ccc2[nH]nc(-c3cc4c(-c5ccc(F)cc5)nccc4[nH]3)c2n1 [Compound 33, 3-(4-(4-Fluorophenyl)-1H-pyrrolo[3,2-c]pyridin-2-yl)-5-(4-methylpyridin-3-yl)-1H-pyrazolo[4,3-b]pyridine] | 3300 nM | 31.3% |  | 
19 | 370 nM | 74 nM | CC(C)CC(=O)Nc1cncc(-c2ccc3[nH]nc(-c4cc5c(-c6ccccc6F)nccc5[nH]4)c3n2)c1 [Compound 58, N-(5-(3-(4-(2-Fluorophenyl)-1H-pyrrolo[3,2-c]pyridin-2-yl)-1H-pyrazolo [4,3-b]pyridin-5-yl)pyridin-3-yl)-3-methylbutanamide] | 370 nM |  |  | 
20 | 824 nM | 108 nM | Cc1ccncc1-c1ccc2[nH]nc(-c3cc4c(N5CCN(C)CC5)nccc4[nH]3)c2n1 [Compound 229, 3-(4-(4-Methylpiperazin-1l-yl)-1H-pyrrolo[3,2-c]pyridin-2-yl)-5-(4-methylpyridin-3-yl)-1H-pyrazolo[4,3-b]pyridine] | 949 nM |  |  | 
21 | > 10000 nM | 421 nM | Nc1cncc(-c2ccc3[nH]nc(-c4cc5c(-c6ccncc6)nccc5[nH]4)c3n2)c1 [Compound 115, 5-(3-(4-(Pyridin-4-yl)-1H-pyrrolo[3,2-c]pyridin-2-yl)-1H-pyrazolo[4,3-b]pyridin-5-yl)pyridin-3-amine] | 436 nM |  | 5.4% | 
22 | > 10000 nM | 51 nM | Fc1cccc(-c2nccc3[nH]c(-c4n[nH]c5ccc(-c6cccnc6)nc45)cc23)c1 [Compound 4, 3-(4-(3-Fluorophenyl)-1H-pyrrolo[3,2-c]pyridin-2-yl)-5-(pyridin-3-yl)-1H-pyrazolo[4,3-b]pyridine] | 427 nM |  | 25% | 
